{"source": "patent US20240132515A1", "about": "“TOXIN MOLECULE SUITABLE FOR ANTIBODY-DRUG CONJUGATE” (MINGHUI PHARMACEUTICAL (HANGZHOU) LIMITED, priority 2021, published 2024)"}
{"test_system": "KPL-4 Cells", "experiment": "Cell Proliferation Inhibition Test (CellTiter-Glo, 72 h)", "assay_type": "cell-based", "conditions": "KPL4, 72 h incubation, CellTiter-Glo luminescence", "procedure": "Cell Proliferation Inhibition Test KPL-4 Cells in the logarithmic phase of growth were collected and re-suspended with fresh RPMI1640 complete cell culture medium, and adjusted to 2×10^4 cells/mL after cell counting. Cells were seeded into 96-well cell culture plates at 100 μL/well, and placed in a CO2 incubator (37° C., 5% CO2) overnight. In the next day, one of the cell culture plates were taken out, balanced to room temperature, and CellTiter-Glo reagent (Promega, USA), which was pre-balanced to room temperature and evenly mixed, was added into the plate at 100 μl. The plate was kept in dark for 30 min, and then luminescence value was read with a microplate reader (denoted as G0 value). The other cell culture plates were taken out and added with different concentrations of test compounds or DMSO (final concentration 0.5%) in corresponding wells. After incubated for 72 h in a CO2 incubator, the cell culture plates were balanced to room temperature and tested for cell viabilities using CellTiter-Glo reagent as described above (denoted as G3 value).\nThe cell proliferation rates were calculated using the following formula: Cell proliferation rate (%)=(mean of G3compound−mean of G0)/(mean of G3DMSO−mean of G0)×100.", "units": {"GI50": "nM"}}
{"smiles": "CC[C@@]1(O)C(=O)OCc2c1cc1n(c2=S)Cc2c-1nc1cc(F)c(C)c3c1c2[C@@H](NC(=O)C(O)Cc1ccccc1)CC3", "note": "(stereo partly shown) [Example 7]", "GI50": 5.76}
{"smiles": "CC[C@@]1(O)C(=O)OCc2c1cc1n(c2=S)Cc2c-1nc1cc(F)c(C)c3c1c2[C@H](NC(=O)CN)CC3", "note": "[Example 14]", "GI50": 6.14}
{"smiles": "CC[C@@]1(O)C(=O)OCc2c1cc1n(c2=S)Cc2c-1nc1cc(F)c(C)c3c1c2[C@H](NC(C)=O)CC3", "note": "[Example 4]", "GI50": 1.55}
{"smiles": "CC[C@@]1(O)C(=O)OCc2c1cc1n(c2=S)Cc2c-1nc1cc(F)c(C)c3c1c2[C@H](NC(=O)C(O)C1CC1)CC3", "note": "(stereo partly shown) [Example 21]", "GI50": 34.7}
{"smiles": "CC[C@@]1(O)C(=O)OCc2c1cc1n(c2=S)Cc2c-1nc1cc(F)c(C)c3c1c2[C@@H](NC(=O)C(C)(C)O)CC3", "note": "[Example 9]", "GI50": 12.1}
{"smiles": "CC[C@@]1(O)C(=O)OCc2c1cc1n(c2=O)Cc2c-1nc1cc(F)c(C)c3c1c2[C@@H](NC(=O)CO)CC3", "note": "[DXd, reference compound]", "GI50": 72}
{"smiles": "CC[C@@]1(O)C(=O)OCc2c1cc1n(c2=S)Cc2c-1nc1cc(F)c(C)c3c1c2[C@@H](NC(C)=O)CC3", "note": "[Example 3]", "GI50": 2.59}
{"smiles": "CC[C@@]1(O)C(=O)OCc2c1cc1n(c2=S)Cc2c-1nc1cc(F)c(C)c3c1c2[C@H](NC(=O)C1(O)CC1)CC3", "note": "[Example 18]", "GI50": 3.89}
{"smiles": "CC[C@@]1(O)C(=O)OCc2c1cc1n(c2=S)Cc2c-1nc1cc(F)c(C)c3c1c2[C@H](NC(=O)C(C)(C)O)CC3", "note": "[Example 10]", "GI50": 3.54}
{"smiles": "CC[C@@]1(O)C(=O)OCc2c1cc1n(c2=S)Cc2c-1nc1cc(F)c(C)c3c1c2[C@H](NC(=O)C(O)Cc1ccccc1)CC3", "note": "(stereo partly shown) [Example 8]", "GI50": 4.95}
{"smiles": "CC[C@@]1(O)C(=O)OCc2c1cc1n(c2=S)Cc2c-1nc1cc(F)c(C)c3c1c2[C@@H](NC(=O)C(O)CC1CC1)CC3", "note": "(stereo partly shown) [Example 19]", "GI50": 2.9}
{"smiles": "CC[C@@]1(O)C(=O)OCc2c1cc1n(c2=S)Cc2c-1nc1cc(F)c(C)c3c1c2[C@H](NC(=O)C(O)CC1CC1)CC3", "note": "(stereo partly shown) [Example 20]", "GI50": 4.79}
{"smiles": "CC[C@@]1(O)C(=O)OCc2c1cc1n(c2=S)Cc2c-1nc1cc(F)c(C)c3c1c2[C@H](NC(=O)C(O)c1ccccc1)CC3", "note": "(stereo partly shown) [Example 6]", "GI50": 5.31}
{"smiles": "CC[C@@]1(O)C(=O)OCc2c1cc1n(c2=S)Cc2c-1nc1cc(F)c(C)c3c1c2[C@@H](NC(=O)CN)CC3", "note": "[Example 13]", "GI50": 7.54}
{"smiles": "CC[C@@]1(O)C(=O)OCc2c1cc1n(c2=S)Cc2c-1nc1cc(F)c(C)c3c1c2[C@@H](NC(=O)C1(O)CC1)CC3", "note": "[Example 17]", "GI50": 1.83}
{"smiles": "CC[C@@]1(O)C(=O)OCc2c1cc1n(c2=S)Cc2c-1nc1cc(F)c(C)c3c1c2[C@@H](NC(=O)C(O)c1ccccc1)CC3", "note": "(stereo partly shown) [Example 5]", "GI50": 1.79}
